According to BindingDB's records for patent US10676479 (Novartis AG, 2020):

Target: Polycomb protein EED (Homo sapiens, UniProt O75530)
Test: EED-H3K27Me3 Peptide Competition Binding Assay by AlphaScreen
Description: Then 4 μL of detection beads mix was added to the plate and incubate in the dark at the rt for 1 h. The final concentration of donor and acceptor beads was 10 μg/mL for each. […] The data were then fit to a dose response equation using the program Helios (Novartis) to get the IC50 values. […] Compounds were diluted as described in the preceding section, and the assay was performed by adding 12 μL of 10 nM biotin-miniPEG-His6 peptide in the above buffer and incubating for 20 min at rt prior to addition of the beads to 10 μg/mL each. The plates were then incubated for 1 h at rt in dark before being read on EnVison.

Polycomb protein EED, sequence (O75530 whole entry): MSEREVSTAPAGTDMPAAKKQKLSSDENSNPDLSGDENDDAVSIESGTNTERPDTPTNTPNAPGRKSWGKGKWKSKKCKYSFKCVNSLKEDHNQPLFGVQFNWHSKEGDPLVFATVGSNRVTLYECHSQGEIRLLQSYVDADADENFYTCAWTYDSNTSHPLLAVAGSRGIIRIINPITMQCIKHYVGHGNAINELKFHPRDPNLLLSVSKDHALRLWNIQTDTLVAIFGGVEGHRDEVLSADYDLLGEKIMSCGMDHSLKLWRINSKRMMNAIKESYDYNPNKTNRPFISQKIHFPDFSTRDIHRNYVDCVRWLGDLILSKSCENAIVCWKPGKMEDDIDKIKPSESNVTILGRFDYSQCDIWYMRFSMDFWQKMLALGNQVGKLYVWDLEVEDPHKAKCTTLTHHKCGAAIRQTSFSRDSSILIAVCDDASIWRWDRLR

| IC50 [nM] | Structure (SMILES) |
| --- | --- |
| 24.9 | CCN1CCN(c2ccc(-c3cnc(NCc4c(F)ccc5c4CCO5)n4cnc(C#N)c34)cn2)CC1 [US10676479, Example 81] |
| 7 | Cc1ncccc1-c1cnc(NCc2c(F)ccc3c2CCO3)n2cnc(C(=O)NC3COC3)c12 [US10676479, Example 106] |
| 8.1 | CS(=O)(=O)c1ccc(-c2cnc(NCc3c(F)ccc4c3CCO4)n3cnc(-c4ccccc4)c23)cc1 [US10676479, Example 110] |
